Assay results as given in ChEMBL document CHEMBL5291721, “A preclinical secondary pharmacology resource illuminates target-adverse drug reaction associations of marketed drugs” (Nat Commun, 2023).

Assays:
[1] = target: T1, 5-hydroxytryptamine receptor 1A (Homo sapiens, UniProt P08908)
T1 sequence (P08908 whole entry): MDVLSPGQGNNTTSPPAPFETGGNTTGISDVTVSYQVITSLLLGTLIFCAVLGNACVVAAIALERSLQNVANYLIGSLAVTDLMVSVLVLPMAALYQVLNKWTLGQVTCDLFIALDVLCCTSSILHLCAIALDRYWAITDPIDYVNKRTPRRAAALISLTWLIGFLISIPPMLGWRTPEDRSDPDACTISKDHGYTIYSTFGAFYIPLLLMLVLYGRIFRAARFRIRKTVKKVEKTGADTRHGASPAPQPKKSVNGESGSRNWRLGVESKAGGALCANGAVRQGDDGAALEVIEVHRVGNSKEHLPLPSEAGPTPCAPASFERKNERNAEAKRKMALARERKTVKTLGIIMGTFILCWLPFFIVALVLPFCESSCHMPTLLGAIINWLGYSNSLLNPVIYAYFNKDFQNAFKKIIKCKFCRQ

[2] = target: T2, Muscarinic acetylcholine receptor M1 (Homo sapiens, UniProt P11229)
T2 sequence (P11229 whole entry): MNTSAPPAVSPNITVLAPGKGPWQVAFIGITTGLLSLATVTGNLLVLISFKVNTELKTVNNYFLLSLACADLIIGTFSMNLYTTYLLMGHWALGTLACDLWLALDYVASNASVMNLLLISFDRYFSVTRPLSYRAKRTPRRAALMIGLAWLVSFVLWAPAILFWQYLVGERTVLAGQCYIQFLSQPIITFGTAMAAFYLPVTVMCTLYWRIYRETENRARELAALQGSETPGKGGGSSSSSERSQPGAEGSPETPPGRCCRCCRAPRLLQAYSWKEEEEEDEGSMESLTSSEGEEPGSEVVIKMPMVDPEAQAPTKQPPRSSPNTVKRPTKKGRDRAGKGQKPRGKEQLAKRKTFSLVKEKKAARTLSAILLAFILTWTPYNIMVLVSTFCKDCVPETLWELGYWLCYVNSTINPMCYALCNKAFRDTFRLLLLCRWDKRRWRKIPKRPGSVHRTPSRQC

[3] = target: Gamma-aminobutyric acid receptor subunit alpha-1/alpha-2/beta-2/gamma-2 (Homo sapiens, UniProt P14867+P18507+P47869+P47870); type: functional, cell-based
[4] = target: T3, Corticotropin-releasing factor receptor 2 (Homo sapiens, UniProt Q13324)
T3 sequence (Q13324 whole entry): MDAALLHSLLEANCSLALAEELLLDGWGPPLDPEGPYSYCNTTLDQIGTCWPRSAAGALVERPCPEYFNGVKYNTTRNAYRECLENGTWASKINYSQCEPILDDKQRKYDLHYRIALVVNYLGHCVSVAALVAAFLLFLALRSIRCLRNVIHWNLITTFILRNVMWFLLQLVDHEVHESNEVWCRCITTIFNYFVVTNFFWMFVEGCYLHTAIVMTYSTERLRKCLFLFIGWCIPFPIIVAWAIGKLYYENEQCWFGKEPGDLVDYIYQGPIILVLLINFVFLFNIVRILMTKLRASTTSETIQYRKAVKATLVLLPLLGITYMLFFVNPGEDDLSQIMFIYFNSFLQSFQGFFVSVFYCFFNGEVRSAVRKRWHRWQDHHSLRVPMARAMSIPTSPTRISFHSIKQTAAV

[5] = target: T4, Endothelin receptor type B (Homo sapiens, UniProt P24530)
T4 sequence (P24530 whole entry): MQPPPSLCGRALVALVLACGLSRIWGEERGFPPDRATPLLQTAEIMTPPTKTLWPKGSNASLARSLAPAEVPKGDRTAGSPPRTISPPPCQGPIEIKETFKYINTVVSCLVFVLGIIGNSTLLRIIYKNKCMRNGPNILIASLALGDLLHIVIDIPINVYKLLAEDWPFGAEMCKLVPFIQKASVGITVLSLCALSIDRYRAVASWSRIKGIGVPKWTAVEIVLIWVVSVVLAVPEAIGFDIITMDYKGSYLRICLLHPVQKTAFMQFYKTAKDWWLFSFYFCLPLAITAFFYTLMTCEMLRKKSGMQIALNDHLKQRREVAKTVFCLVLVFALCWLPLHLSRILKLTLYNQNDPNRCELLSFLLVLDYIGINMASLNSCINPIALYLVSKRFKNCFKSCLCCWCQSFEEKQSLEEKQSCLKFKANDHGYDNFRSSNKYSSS

[6] = target: Beta-3 adrenergic receptor (Homo sapiens, UniProt P13945)
B1 bradykinin receptor = target: T5, B1 bradykinin receptor (Homo sapiens, UniProt P46663)
T5 sequence (P46663 whole entry): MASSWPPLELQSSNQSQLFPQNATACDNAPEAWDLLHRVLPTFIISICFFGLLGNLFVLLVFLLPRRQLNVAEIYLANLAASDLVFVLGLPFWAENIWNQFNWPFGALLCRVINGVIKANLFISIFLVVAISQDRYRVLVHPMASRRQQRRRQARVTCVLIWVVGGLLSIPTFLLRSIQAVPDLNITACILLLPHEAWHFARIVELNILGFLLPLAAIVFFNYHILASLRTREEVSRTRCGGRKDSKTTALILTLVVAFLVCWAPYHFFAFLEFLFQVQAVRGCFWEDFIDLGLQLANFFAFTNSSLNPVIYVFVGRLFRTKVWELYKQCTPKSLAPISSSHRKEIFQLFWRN

[7] = target: T6, Corticotropin-releasing factor receptor 1 (Homo sapiens, UniProt P34998)
T6 sequence (P34998 whole entry): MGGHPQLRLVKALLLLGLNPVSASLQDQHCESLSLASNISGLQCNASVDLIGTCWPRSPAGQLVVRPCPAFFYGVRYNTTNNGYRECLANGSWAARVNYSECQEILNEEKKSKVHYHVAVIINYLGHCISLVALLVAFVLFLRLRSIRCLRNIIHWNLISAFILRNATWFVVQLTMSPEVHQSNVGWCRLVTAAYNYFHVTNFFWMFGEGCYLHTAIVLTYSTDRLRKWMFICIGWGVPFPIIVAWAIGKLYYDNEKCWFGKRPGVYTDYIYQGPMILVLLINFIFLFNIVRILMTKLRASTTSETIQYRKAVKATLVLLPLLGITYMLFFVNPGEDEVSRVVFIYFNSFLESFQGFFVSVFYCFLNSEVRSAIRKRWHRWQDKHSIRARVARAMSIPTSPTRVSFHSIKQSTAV

[8] = target: Voltage-dependent N-type calcium channel subunit alpha-1B (Rattus norvegicus, UniProt Q02294); type: functional
[9] = target: Neurotensin receptor type 1 (Homo sapiens, UniProt P30989)
Also: assay procedure not described here.

Beta-3 adrenergic receptor, sequence (P13945 whole entry): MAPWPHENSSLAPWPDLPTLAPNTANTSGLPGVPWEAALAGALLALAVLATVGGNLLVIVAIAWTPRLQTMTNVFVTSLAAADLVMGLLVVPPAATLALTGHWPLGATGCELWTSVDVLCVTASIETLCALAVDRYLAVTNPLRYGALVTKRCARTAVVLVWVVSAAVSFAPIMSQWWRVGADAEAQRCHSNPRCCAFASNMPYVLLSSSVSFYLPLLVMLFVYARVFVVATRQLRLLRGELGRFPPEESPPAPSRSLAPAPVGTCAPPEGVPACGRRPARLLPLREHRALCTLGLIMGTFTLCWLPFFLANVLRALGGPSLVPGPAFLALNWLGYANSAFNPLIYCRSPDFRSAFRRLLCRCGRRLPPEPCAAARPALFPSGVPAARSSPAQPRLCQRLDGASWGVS
Voltage-dependent N-type calcium channel subunit alpha-1B, sequence (Q02294 whole entry): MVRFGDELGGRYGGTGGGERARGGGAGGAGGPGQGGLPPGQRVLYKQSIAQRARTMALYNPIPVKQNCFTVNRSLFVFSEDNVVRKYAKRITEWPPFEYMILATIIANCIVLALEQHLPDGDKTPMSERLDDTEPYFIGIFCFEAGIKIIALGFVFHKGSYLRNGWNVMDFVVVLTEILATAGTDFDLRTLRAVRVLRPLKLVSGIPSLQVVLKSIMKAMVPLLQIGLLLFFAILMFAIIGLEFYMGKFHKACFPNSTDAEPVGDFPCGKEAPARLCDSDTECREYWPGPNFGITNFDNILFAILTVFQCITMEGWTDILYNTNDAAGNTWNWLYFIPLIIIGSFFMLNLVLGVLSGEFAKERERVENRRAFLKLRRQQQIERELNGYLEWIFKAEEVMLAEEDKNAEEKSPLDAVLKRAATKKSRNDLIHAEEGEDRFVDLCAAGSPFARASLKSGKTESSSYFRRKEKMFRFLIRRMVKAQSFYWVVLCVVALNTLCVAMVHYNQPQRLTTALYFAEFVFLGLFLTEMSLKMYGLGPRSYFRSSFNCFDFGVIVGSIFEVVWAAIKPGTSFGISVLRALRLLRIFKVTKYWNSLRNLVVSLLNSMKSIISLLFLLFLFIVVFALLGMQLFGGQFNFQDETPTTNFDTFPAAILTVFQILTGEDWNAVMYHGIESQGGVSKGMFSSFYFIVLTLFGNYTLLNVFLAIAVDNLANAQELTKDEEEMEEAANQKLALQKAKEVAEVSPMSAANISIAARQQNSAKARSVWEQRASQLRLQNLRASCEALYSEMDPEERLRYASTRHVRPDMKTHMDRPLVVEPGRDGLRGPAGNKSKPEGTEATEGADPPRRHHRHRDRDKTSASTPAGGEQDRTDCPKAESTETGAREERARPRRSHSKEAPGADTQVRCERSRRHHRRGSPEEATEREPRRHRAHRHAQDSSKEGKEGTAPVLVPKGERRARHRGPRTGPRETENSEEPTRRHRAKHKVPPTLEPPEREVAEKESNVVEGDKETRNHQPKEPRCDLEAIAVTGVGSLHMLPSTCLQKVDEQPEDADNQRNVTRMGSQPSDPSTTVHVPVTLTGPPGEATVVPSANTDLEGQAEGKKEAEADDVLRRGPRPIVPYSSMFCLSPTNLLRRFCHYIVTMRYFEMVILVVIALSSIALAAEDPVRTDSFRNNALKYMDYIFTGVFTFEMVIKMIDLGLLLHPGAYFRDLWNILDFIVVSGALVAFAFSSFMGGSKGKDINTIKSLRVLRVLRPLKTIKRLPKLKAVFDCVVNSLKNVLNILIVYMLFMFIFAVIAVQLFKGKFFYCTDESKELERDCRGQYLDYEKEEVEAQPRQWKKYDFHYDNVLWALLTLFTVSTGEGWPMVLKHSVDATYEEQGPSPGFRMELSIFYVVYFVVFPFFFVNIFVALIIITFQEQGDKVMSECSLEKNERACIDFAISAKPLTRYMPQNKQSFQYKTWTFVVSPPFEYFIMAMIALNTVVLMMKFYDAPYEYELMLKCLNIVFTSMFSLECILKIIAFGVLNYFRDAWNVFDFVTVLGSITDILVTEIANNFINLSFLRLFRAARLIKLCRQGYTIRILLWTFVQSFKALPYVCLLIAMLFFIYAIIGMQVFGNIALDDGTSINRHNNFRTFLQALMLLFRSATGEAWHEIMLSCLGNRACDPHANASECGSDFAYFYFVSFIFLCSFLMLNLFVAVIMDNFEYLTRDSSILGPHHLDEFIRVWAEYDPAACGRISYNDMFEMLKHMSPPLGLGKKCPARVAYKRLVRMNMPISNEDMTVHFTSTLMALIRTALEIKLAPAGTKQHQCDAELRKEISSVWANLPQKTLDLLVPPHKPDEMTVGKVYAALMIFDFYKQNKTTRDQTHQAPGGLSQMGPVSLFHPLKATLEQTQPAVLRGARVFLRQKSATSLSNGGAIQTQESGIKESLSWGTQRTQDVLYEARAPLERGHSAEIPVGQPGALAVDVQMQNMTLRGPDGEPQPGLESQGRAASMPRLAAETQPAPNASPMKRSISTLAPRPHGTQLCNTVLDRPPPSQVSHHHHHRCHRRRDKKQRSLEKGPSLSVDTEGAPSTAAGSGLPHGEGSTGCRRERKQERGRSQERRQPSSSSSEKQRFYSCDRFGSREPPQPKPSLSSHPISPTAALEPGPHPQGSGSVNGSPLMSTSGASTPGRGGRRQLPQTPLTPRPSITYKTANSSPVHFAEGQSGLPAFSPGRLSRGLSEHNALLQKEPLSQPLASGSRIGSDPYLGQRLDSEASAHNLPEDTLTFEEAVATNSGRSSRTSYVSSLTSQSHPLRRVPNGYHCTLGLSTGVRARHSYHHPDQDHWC
Neurotensin receptor type 1, sequence (P30989 whole entry): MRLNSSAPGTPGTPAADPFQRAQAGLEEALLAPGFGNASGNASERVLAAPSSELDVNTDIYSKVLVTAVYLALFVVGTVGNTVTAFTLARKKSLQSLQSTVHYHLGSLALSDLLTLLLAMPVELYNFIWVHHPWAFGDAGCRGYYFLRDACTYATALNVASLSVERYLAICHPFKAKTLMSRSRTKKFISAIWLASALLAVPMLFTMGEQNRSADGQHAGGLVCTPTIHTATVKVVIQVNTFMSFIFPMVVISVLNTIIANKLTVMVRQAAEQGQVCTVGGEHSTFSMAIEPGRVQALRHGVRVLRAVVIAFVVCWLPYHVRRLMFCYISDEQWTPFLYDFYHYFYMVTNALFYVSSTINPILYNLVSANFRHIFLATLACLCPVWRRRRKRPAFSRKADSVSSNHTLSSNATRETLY
Gamma-aminobutyric acid receptor subunit alpha-1/alpha-2/beta-2/gamma-2, sequence (P14867 whole entry): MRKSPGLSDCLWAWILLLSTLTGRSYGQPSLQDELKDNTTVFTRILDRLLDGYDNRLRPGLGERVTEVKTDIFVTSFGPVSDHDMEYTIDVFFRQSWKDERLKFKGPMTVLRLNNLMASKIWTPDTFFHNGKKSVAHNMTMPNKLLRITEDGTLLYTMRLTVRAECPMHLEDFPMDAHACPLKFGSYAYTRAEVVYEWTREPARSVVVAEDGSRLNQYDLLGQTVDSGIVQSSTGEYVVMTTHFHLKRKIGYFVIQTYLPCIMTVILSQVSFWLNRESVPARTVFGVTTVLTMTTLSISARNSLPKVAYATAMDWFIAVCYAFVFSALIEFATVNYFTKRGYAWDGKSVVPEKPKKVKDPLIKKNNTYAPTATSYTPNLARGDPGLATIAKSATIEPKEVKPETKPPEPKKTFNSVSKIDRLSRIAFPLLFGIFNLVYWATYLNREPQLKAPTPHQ
Gamma-aminobutyric acid receptor subunit alpha-1/alpha-2/beta-2/gamma-2, sequence (P47870 whole entry): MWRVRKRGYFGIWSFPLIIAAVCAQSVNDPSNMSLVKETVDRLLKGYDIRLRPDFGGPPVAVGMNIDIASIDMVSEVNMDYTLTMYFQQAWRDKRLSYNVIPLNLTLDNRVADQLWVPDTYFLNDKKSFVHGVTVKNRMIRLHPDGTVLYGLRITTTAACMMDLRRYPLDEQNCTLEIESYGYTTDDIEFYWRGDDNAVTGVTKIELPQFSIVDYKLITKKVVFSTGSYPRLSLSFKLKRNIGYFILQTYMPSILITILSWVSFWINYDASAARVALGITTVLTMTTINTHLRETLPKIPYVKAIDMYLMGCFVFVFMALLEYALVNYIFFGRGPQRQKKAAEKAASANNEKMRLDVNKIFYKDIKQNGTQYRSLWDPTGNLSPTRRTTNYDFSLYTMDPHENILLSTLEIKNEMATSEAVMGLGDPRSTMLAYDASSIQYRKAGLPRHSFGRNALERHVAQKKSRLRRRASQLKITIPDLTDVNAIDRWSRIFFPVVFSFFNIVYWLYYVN
Gamma-aminobutyric acid receptor subunit alpha-1/alpha-2/beta-2/gamma-2, sequence (P18507 whole entry): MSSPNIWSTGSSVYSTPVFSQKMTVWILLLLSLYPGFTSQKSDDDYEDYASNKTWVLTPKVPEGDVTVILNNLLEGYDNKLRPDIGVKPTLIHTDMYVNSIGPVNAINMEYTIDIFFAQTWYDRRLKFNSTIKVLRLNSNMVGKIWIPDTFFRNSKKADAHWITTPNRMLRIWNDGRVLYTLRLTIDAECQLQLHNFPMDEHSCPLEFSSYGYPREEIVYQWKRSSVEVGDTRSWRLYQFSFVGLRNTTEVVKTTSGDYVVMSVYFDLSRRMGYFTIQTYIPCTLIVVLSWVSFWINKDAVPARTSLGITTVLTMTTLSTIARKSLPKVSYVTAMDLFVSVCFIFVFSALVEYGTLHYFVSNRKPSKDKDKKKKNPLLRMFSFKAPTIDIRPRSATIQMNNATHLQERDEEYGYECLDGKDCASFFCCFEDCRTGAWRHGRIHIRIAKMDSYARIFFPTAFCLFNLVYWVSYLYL
Gamma-aminobutyric acid receptor subunit alpha-1/alpha-2/beta-2/gamma-2, sequence (P47869 whole entry): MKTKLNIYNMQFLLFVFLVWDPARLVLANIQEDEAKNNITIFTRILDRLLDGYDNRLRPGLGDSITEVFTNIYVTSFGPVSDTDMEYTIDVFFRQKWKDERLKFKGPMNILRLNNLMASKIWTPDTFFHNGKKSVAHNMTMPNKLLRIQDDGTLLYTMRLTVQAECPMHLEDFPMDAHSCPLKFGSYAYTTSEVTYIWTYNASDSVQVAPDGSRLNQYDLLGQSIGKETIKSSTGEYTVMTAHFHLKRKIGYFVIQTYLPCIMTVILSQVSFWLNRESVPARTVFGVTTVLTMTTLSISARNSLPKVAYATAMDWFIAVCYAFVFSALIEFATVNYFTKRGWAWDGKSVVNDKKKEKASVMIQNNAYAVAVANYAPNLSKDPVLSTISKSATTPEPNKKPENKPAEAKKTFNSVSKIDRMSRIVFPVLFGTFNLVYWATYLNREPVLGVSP

| SMILES | AC50 [1] | AC50 [2] | AC50 [3] | AC50 [5] | AC50 (B1 bradykinin receptor) | further results |
| --- | --- | --- | --- | --- | --- | --- |
| O=C(O)c1cccc(-c2noc(-c3ccccc3F)n2)c1 | > 10 µM |  |  |  |  |  |
| CO/N=C(\C(=O)N[C@@H]1C(=O)N2C(C(=O)OCOC(=O)C(C)(C)C)=C(C)CS[C@H]12)c1csc(N)n1 |  | > 30 µM | > 30 µM |  |  |  |
| O=C(Cn1ccnc1[N+](=O)[O-])NCc1ccccc1 [BENZNIDAZOLE] |  | > 30 µM |  |  |  |  |
| CCCC(=O)N1CCCN(c2nc(N)c3cc(OC)c(OC)cc3n2)CC1 [BUNAZOSIN] |  |  | > 30 µM |  |  |  |
| C[N+](C)(C)CCOC(N)=O [CARBAMOYLCHOLINE] | > 10 µM |  | > 30 µM |  |  |  |
| COCC1=C(C(=O)OC(C)OC(=O)OC(C)C)N2C(=O)[C@@H](NC(=O)/C(=N\OC)c3csc(N)n3)[C@H]2SC1 (stereo partly specified) [CEFPODOXIME PROXETIL] |  | > 30 µM | > 30 µM |  |  |  |
| CC(C)(N)Cc1ccc(Cl)cc1 [CHLORPHENTERMINE] | > 10 µM |  |  | > 30 µM | > 30 µM | AC50 [4]: > 30 µM; AC50 [6]: > 30 µM; AC50 [7]: > 30 µM; AC50 [8]: > 10 µM; AC50 [9]: > 30 µM |
| NS(=O)(=O)c1cc2c(cc1Cl)NC(CC1CCCC1)NS2(=O)=O (stereo unspecified) [CYCLOPENTHIAZIDE] |  | > 30 µM | > 30 µM |  |  |  |
| Nc1nc(-n2cc(C(=O)O)c(=O)c3cc(F)c(N4CC(O)C4)c(Cl)c32)c(F)cc1F [DELAFLOXACIN] |  | > 30 µM |  |  |  |  |
| O=C(Nc1ccccc1)OCC(CN1CCCCC1)OC(=O)Nc1ccccc1 (stereo unspecified) [DIPERODON] | > 10 µM |  |  | > 30 µM | > 30 µM | AC50 [4]: > 30 µM; AC50 [6]: > 30 µM; AC50 [7]: > 30 µM; AC50 [8]: > 10 µM; AC50 [9]: > 30 µM |
| N/N=c1/cc2c(n[nH]1)CCN(C(=O)c1ccccc1)C2 [ENDRALAZINE] |  | > 30 µM | > 30 µM |  |  |  |
| C=C1C[C@@H]2[C@H](CC[C@]3(C)C(=O)CC[C@@H]23)[C@@]2(C)C=CC(=O)C=C12 [EXEMESTANE] | > 10 µM |  |  | > 30 µM | > 30 µM | AC50 [4]: > 30 µM; AC50 [6]: > 30 µM; AC50 [7]: > 30 µM; AC50 [8]: > 10 µM; AC50 [9]: > 30 µM |
| CC(C)=CCC1C(=O)N(c2ccccc2)N(c2ccccc2)C1=O [FEPRAZONE] |  | > 30 µM |  |  |  |  |
| CC(=O)N(CC(O)CO)c1c(I)c(C(=O)NCC(O)CO)c(I)c(C(=O)NCC(O)CO)c1I (stereo unspecified) [IOHEXOL] | > 10 µM |  |  |  |  |  |
| CN1C(=O)N(C)C2C1N(C)C(=O)N2C (stereo unspecified) [MEBICAR] |  | > 30 µM | > 30 µM |  |  |  |
| NC(=O)c1cccc2cn(-c3ccc([C@@H]4CCCNC4)cc3)nc12 [NIRAPARIB] |  | 15.3 µM |  |  |  |  |
| Nc1ccc(/N=N/c2ccccc2)c(N)n1 [PHENAZOPYRIDINE] |  | > 30 µM | > 30 µM |  |  |  |
| CN(C)CCCN1c2ccccc2Sc2ccccc21 [PROMAZINE] | 4.37 µM |  |  | > 30 µM | > 30 µM | AC50 [4]: > 30 µM; AC50 [6]: > 30 µM; AC50 [7]: > 30 µM; AC50 [8]: > 10 µM; AC50 [9]: > 30 µM |
| O=C(O)CCn1c2c(c3ccccc31)C[C@H](NS(=O)(=O)c1ccc(F)cc1)CC2 [RAMATROBAN] |  |  |  | > 10 µM | > 10 µM |  |
| O=P(O)(O)C(O)(Cc1cccnc1)P(=O)(O)O [RISEDRONIC ACID] | > 10 µM |  |  | > 30 µM | > 30 µM | AC50 [4]: > 30 µM; AC50 [6]: > 30 µM; AC50 [7]: > 30 µM; AC50 [8]: > 10 µM; AC50 [9]: > 30 µM |
| O=C1CCC(N2C(=O)c3ccccc3C2=O)C(=O)N1 (stereo unspecified) [THALIDOMIDE] | > 10 µM |  |  | > 30 µM | > 30 µM | AC50 [4]: > 30 µM; AC50 [6]: > 30 µM; AC50 [7]: > 30 µM; AC50 [8]: > 10 µM; AC50 [9]: > 30 µM |
